According to patent US20240424019A1, “SHP1 MODIFIED DENDRITIC CELLS AND EXTRACELLULAR VESICLES DERIVED THEREFROM AND ASSOCIATED METHODS” (BOARD OF REGENTS, THE UNIVERSITY OF TEXAS SYSTEM, priority 2021, published 2024):

Columns and labels:
purified SHP1 = purified SHP1 (Homo sapiens, UniProt P29350); test: Microscale thermophoresis (MST) binding assay; details: mean of triplicates; read-out: apparent dissociation constant Kd
Description: FIG. 3A: Volcano plot of reverse phase protein array (RPPA) data of mouse BMDCs treated with VitE (50 μg/ml) compared to those treated with vehicle control with tumor conditioned media (TCM) for 48 hours (n=3 independent samples). […] The grey dashed line indicates P-value of 0.05. FIG. 3B: t-SNEs by CyTOF and quantification comparing the intensity of pY564-SHP1 in TADCs from the vehicle-or VitE-treated EMT6 tumors at day 15 post-implantation. FIG. 3C: Top, SHP1 knockdown in BMDCs was effective. Bottom, CFSE-dilution analysis of OT-1 T cells co-cultured with OVA protein-pulsed BMDCs (ratio 10:1) with knockdown of SHP1 by siPtpn6 versus siCtrl (n=3). Right, quantification of OT-1 T-cell numbers under the indicated condition. FIG. 3D: The binding of VitE to purified SHP1 is analyzed by microscale thermophoresis (MST) binding assay. […] FIG. 3E: Relative tyrosine phosphatase activity of SHP1 immunoprecipitated from LPS (100 ng/ml)-activated DC2.4 cells in the presence of indicated doses of VitE (mean of triplicates). FIG. 3F: SHP1 tyrosine phosphatase activity in LPS (100 ng/ml)-activated BMDCs (n=6) treated with vehicle-or VitE (50 μg/ml). Error bars, s.e.m. ns, no significant. *P<0.05, **P<0.01. ***P<0.001, ****P<0.0001. […]

SHP1 = biological target: T1, SHP1 (Mus musculus, UniProt P29351); test: SHP1 tyrosine phosphatase activity in LPS-activated BMDCs; format: cell-based; details: VitE 50 μg/ml vs vehicle, LPS 100 ng/ml stimulation
T1 construct: We immunoprecipitated SHP1 from the vehicle or VitE-treated DC2.4 cells or BMDCs with a monoclonal SHP1 antibody; endogenous in cells
T1 sequence (P29351 whole entry): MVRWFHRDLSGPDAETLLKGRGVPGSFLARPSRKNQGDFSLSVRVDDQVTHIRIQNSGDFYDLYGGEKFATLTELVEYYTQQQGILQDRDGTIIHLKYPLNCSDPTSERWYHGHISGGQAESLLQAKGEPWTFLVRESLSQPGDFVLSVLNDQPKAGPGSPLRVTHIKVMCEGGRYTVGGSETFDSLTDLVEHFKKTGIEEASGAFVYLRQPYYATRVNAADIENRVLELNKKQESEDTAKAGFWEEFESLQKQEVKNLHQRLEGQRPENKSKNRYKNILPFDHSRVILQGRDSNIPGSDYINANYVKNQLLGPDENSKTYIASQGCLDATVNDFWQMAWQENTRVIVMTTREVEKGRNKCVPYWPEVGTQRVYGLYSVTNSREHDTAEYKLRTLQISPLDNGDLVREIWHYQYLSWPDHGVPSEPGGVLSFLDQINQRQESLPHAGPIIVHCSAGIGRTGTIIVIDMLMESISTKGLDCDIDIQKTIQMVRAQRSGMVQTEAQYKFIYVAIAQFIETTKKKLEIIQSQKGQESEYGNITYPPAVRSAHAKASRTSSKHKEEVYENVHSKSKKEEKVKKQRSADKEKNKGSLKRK
Description: FIG. 3A: […] FIG. 3B: t-SNEs by CyTOF and quantification comparing the intensity of […]-SHP1 in TADCs from the vehicle-or VitE-treated EMT6 tumors at day 15 post-implantation. FIG. 3C: Top, SHP1 knockdown in BMDCs was effective. Bottom, CFSE-dilution analysis of OT-1 T cells co-cultured with OVA protein-pulsed BMDCs (ratio 10:1) with knockdown of SHP1 by […]6 versus siCtrl (n=3). Right, quantification of OT-1 T-cell numbers under the indicated condition. FIG. 3D: The binding of VitE to purified SHP1 is analyzed by microscale thermophoresis (MST) binding assay. […] FIG. 3E: Relative tyrosine phosphatase activity of SHP1 immunoprecipitated from LPS (100 ng/ml)-activated DC2.4 cells in the presence of indicated doses of VitE (mean of triplicates). FIG. 3F: SHP1 tyrosine phosphatase activity in LPS (100 ng/ml)-activated BMDCs (n=6) treated with vehicle-or VitE (50 μg/ml). Error bars, s.e.m. ns, no significant. *P<0.05, **P<0.01. ***P<0.001, ****P<0.0001. Bone marrow (BM) was harvested from C57BL/6J, BALB/Cj mice by flushing femurs, tibias, and humeri with DCs culture medium. […] We assessed the phosphatase activity of SHP1 by using the RediPlate 96 EnzChek Tyrosine Phosphatase Assay Kit (ThermoFisher). […] We placed beads into RediPlate wells and incubated them for 30 min at 25° C. before reading them for fluorescence. […]

B16-FLT3L melanoma = B16-FLT3L melanoma model; format: in vivo, mouse; details: VitE plus ICT

purified SHP1, sequence (P29350 whole entry): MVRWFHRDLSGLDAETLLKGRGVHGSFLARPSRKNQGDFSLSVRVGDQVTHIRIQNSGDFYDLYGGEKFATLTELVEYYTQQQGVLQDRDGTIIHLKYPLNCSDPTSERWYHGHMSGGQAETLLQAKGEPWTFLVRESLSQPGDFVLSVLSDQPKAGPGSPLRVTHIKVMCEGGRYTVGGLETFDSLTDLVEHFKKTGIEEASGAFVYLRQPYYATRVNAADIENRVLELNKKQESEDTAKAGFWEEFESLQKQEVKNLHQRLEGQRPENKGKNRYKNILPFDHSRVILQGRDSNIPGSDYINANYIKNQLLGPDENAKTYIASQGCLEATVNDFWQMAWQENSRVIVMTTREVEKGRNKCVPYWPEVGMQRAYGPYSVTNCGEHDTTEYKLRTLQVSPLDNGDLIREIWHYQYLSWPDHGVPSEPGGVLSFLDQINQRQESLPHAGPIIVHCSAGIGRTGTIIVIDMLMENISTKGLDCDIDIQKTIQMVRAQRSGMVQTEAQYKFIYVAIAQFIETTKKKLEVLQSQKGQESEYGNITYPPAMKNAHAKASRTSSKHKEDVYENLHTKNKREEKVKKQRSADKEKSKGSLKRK

For `Cc1c(C)c2c(c(C)c1O)CC[C@@](C)(CCC[C@H](C)CCC[C@H](C)CCCC(C)C)O2` [VitE, D-α-Tocopherol], the Kd (purified SHP1) was 39 µM, the “SHP1 activity in BMDCs” value (SHP1) was “marked reduction of SHP1 function” and the ICT response (B16-FLT3L melanoma) was “effectively enhanced their ICT responses”.
